Among the targets are Estrogen receptor beta (Homo sapiens, UniProt Q92731); Glucagon receptor (Homo sapiens, UniProt P47871); D(1A) dopamine receptor (Homo sapiens, UniProt P21728).
The target of test [1] is T1, Type-2 angiotensin II receptor (Homo sapiens, UniProt P50052).
T1 sequence (P50052 whole entry): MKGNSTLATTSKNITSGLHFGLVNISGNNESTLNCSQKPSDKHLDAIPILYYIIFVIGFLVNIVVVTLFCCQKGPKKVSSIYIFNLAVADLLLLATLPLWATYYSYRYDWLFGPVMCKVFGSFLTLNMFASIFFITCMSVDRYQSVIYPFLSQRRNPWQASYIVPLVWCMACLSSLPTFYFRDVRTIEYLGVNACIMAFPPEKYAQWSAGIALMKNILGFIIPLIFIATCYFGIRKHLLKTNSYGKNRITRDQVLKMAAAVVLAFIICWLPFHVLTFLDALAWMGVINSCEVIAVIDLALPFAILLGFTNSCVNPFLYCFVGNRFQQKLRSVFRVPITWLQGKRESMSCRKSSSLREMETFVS
Type of test: functional.

A further test has as its target T2, B1 bradykinin receptor (Homo sapiens, UniProt P46663).
T2 sequence (P46663 whole entry): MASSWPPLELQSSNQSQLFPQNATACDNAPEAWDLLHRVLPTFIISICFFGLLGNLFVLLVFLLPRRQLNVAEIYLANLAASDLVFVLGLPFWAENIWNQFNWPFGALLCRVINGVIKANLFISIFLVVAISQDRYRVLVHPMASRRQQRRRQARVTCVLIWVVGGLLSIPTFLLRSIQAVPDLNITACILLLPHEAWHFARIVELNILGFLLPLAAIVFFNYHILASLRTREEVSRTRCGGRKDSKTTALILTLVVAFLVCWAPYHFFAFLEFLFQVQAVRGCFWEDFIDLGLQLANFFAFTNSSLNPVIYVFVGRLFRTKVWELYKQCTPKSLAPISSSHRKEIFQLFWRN

A further test addresses Cannabinoid receptor 1 (Homo sapiens, UniProt P21554). Type of test: functional.
Test [2] has as its target T3, Corticotropin-releasing factor receptor 2 (Homo sapiens, UniProt Q13324).
T3 sequence (Q13324 whole entry): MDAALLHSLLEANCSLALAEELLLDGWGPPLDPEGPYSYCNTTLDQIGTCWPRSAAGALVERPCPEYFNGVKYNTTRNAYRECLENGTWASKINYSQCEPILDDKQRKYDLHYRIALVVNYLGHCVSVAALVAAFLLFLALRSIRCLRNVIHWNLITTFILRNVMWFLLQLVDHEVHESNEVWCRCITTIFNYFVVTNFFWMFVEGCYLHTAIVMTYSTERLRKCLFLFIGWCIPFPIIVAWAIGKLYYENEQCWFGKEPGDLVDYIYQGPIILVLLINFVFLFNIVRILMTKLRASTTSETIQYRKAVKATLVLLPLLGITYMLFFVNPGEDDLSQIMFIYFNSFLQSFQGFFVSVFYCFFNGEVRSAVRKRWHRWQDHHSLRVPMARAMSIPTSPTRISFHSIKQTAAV

For test [3], the target named is 5-hydroxytryptamine receptor 6 (Homo sapiens, UniProt P50406).
Sequence of 5-hydroxytryptamine receptor 6 (P50406 whole entry): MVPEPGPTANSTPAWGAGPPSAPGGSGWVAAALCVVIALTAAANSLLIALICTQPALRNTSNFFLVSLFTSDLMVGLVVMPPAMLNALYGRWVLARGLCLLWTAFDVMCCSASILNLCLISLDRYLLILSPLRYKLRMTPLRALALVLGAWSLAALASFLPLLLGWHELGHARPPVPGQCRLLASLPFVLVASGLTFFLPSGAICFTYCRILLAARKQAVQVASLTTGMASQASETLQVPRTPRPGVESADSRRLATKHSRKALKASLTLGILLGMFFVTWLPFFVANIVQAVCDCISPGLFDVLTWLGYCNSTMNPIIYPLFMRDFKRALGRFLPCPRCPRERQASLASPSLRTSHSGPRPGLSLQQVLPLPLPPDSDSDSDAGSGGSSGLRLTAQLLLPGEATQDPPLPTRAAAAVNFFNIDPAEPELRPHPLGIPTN
The target in test [4] is 5-hydroxytryptamine receptor 7 (Homo sapiens, UniProt P34969).
Sequence of 5-hydroxytryptamine receptor 7 (P34969 whole entry): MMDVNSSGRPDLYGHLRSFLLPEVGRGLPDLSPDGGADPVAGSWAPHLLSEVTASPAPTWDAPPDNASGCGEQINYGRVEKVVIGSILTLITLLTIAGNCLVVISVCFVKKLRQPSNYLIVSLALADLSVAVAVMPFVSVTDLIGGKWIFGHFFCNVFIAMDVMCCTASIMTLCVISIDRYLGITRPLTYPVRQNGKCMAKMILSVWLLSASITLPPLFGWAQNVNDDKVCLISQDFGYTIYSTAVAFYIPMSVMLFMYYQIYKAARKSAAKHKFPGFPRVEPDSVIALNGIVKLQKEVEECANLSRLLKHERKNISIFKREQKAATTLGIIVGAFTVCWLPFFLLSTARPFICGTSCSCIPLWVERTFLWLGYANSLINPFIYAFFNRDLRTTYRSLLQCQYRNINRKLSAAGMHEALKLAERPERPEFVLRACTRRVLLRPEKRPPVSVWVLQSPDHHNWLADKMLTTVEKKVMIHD
Test [5] deals with Beta-1 adrenergic receptor (Homo sapiens, UniProt P08588). Type of test: functional, cell-based.
Sequence of Beta-1 adrenergic receptor (P08588 whole entry): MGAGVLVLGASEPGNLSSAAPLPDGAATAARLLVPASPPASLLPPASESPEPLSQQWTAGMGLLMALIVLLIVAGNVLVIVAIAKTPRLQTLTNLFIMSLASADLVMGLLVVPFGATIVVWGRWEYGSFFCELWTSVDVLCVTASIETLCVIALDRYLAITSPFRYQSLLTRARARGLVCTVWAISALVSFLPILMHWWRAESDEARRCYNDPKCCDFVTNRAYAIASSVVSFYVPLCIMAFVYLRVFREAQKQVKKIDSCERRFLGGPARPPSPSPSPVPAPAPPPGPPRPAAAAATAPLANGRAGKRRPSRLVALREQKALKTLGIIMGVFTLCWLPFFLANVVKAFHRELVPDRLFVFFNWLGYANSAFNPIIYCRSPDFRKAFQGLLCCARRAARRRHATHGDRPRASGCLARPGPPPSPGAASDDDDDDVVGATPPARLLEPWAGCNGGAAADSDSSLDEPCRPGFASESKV
The target of another test is T4, Androgen receptor (Rattus norvegicus, UniProt P15207).
T4 sequence (P15207 whole entry): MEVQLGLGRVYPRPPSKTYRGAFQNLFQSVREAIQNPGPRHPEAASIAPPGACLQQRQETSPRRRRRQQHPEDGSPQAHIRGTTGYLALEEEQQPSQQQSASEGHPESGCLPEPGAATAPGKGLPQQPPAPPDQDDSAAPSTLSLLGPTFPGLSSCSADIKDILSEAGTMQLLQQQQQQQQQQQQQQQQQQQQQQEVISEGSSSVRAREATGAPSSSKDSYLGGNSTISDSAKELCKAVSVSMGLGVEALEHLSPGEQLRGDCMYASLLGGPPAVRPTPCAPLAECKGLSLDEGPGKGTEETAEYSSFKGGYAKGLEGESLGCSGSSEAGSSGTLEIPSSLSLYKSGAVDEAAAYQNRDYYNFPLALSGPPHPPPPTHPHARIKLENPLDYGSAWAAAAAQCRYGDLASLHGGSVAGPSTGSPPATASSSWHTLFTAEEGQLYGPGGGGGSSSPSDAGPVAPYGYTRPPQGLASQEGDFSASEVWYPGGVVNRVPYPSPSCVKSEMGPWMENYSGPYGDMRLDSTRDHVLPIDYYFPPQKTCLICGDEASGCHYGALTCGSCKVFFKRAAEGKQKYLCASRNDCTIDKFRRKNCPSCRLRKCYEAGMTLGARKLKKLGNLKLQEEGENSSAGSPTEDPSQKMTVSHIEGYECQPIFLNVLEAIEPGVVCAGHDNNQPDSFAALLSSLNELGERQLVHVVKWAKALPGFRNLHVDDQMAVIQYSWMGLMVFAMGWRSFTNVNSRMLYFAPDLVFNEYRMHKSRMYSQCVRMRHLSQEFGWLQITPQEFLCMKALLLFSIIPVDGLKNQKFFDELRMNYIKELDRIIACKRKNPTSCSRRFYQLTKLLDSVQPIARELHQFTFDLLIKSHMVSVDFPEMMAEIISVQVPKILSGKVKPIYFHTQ
Format: functional.

In test [6] the target is Voltage-dependent L-type calcium channel subunit alpha-1C (Homo sapiens, UniProt Q13936). Type of test: functional, cell-based.
Sequence of Voltage-dependent L-type calcium channel subunit alpha-1C (Q13936 whole entry): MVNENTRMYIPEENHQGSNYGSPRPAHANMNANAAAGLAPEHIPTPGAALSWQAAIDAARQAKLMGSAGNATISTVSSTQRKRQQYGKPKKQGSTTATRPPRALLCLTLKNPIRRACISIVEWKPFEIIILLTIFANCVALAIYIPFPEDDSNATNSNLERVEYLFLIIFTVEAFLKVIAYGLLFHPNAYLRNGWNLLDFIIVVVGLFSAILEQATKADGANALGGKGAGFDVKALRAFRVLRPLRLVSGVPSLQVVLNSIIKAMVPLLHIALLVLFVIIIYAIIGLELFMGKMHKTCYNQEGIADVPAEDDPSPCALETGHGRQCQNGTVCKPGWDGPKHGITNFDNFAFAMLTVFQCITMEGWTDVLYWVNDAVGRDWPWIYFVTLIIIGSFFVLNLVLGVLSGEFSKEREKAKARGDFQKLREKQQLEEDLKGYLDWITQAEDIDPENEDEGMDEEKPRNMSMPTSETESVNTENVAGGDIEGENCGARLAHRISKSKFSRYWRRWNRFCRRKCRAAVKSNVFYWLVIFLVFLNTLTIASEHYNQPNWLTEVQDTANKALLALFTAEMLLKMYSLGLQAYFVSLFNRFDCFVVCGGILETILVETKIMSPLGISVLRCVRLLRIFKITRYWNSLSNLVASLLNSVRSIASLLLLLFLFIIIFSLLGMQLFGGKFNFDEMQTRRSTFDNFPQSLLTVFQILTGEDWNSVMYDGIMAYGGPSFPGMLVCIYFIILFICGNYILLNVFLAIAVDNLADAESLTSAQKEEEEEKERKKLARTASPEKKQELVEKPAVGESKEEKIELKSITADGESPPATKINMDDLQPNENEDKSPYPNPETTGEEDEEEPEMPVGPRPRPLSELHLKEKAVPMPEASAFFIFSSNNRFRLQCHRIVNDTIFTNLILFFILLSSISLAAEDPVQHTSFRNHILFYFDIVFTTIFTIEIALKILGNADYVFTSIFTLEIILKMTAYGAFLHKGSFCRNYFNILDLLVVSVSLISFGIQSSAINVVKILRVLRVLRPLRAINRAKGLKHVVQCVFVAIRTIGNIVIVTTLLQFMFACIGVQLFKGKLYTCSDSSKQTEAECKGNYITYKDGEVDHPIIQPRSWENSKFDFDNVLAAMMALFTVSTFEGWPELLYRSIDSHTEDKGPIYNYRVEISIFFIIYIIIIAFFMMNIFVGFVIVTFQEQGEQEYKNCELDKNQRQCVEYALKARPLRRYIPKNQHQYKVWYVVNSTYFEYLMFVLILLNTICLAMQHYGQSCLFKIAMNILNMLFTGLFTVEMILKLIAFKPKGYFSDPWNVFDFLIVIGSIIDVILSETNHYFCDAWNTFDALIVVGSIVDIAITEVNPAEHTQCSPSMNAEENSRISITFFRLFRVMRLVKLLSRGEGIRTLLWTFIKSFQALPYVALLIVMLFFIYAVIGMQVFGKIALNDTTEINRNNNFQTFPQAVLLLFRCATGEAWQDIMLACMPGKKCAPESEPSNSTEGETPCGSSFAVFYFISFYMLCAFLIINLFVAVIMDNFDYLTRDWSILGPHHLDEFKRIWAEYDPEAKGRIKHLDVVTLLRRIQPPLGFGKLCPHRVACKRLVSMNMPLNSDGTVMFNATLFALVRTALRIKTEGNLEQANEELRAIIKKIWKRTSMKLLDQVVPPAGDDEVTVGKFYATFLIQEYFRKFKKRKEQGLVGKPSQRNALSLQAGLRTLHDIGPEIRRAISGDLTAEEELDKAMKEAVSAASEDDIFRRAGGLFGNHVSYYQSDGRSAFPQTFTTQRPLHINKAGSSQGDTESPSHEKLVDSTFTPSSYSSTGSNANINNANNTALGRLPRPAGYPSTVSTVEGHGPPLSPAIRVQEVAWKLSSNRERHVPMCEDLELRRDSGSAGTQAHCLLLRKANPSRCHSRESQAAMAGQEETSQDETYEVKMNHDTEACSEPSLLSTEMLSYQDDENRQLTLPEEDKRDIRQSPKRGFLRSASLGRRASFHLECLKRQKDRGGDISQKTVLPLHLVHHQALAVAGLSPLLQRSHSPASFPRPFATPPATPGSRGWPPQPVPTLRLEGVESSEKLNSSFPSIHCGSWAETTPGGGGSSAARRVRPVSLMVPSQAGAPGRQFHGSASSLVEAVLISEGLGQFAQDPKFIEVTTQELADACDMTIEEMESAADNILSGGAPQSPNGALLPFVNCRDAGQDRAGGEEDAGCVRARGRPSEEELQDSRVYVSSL
The target in test [7] is Sodium channel protein type 5 subunit alpha (Homo sapiens, UniProt Q14524). Type of test: functional, cell-based.

Structures are written as SMILES.

These results are taken from ChEMBL document CHEMBL5291721, “A preclinical secondary pharmacology resource illuminates target-adverse drug reaction associations of marketed drugs” (Nat Commun, 2023).
Also: assay procedure not described here.

Sequence of Cannabinoid receptor 1 (P21554 whole entry): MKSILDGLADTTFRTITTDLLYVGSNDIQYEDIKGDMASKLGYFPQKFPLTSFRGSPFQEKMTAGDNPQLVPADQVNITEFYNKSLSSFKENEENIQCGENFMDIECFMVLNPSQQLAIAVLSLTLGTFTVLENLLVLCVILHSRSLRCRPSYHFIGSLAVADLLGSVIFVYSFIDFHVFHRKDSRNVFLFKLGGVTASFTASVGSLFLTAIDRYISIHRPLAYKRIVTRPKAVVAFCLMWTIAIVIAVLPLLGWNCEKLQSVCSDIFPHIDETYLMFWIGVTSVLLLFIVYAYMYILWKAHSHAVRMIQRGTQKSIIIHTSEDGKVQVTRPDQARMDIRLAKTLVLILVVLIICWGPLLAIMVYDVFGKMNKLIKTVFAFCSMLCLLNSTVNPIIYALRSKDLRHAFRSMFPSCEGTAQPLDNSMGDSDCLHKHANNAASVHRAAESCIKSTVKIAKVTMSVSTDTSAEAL
Sequence of Estrogen receptor beta (Q92731 whole entry): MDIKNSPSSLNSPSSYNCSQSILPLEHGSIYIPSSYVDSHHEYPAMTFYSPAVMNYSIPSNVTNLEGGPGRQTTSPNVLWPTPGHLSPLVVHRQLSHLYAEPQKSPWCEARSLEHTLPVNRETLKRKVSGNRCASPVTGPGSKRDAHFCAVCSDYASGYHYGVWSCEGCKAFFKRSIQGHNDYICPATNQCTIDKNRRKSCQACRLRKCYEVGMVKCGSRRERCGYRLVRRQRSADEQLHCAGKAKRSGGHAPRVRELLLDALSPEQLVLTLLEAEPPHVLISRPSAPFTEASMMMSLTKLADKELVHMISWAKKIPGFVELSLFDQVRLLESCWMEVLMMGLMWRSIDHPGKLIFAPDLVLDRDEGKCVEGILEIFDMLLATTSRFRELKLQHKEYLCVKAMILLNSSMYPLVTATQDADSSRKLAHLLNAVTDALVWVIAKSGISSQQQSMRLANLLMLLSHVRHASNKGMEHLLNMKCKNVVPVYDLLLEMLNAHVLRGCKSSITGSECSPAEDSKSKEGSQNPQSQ
Sequence of D(1A) dopamine receptor (P21728 whole entry): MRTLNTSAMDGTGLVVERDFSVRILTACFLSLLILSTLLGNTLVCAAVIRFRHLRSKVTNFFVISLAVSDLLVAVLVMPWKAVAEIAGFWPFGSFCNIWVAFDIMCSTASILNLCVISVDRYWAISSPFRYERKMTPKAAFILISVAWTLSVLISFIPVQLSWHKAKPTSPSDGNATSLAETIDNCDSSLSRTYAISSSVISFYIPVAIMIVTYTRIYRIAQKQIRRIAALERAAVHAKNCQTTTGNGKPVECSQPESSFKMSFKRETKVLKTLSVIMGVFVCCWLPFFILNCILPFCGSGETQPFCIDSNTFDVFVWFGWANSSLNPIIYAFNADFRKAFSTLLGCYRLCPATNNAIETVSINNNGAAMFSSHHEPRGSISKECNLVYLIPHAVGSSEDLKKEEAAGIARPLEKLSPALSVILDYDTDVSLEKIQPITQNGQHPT

By AC50 is commonly meant the concentration at which the activity in the assay is half-maximal. Take `N=C(N)NC(=O)c1nc(Cl)c(N)nc1N` [AMILORIDE]: the AC50 in test [1] was more than 100 µM; on B1 bradykinin receptor, more than 10 µM; on Cannabinoid receptor 1, more than 10 µM; in test [2], more than 30 µM; on Estrogen receptor beta, more than 30 µM; at Glucagon receptor, more than 30 µM. In addition, the AC50 (in test [3]; in test [4]; at D(1A) dopamine receptor) was more than 10 µM in each case.

Regarding `C[C@]12CCC(=O)C=C1C=C[C@@H]1[C@@H]2CC[C@@]2(C)[C@H]1CC[C@@]21CCC(=O)O1` [CANRENONE], the AC50 in test [5] was more than 30 µM.

At Androgen receptor, `C[C@]12C=CC(=O)C=C1C(Cl)=C[C@@H]1[C@@H]2[C@@H](O)C[C@@]2(C)[C@H]1CC[C@]2(O)C(=O)CO` [CLOPREDNOL] displayed a half-maximal activity concentration (AC50) of more than 30 µM.

As to `COc1cccc2c1C(=O)c1c(O)c3c(c(O)c1C2=O)C[C@@](O)(C(=O)CO)C[C@@H]3O[C@H]1C[C@H](N)[C@H](O)[C@H](C)O1` [DOXORUBICIN], the AC50 in test [6] and in [7] was more than 50 µM throughout.

As for `CC(C)(Oc1ccc(Cl)cc1)C(=O)OCCOC(=O)c1cccnc1` [ETOFIBRATE], the AC50 (in test [5]; at Androgen receptor) was more than 30 µM in each case.

`CC(C)Cc1ccc(C(C)C(=O)OCc2ccccn2)cc1` (stereo unspecified) [IBUPROFEN PICONOL] gave an AC50 in test [1] of more than 100 µM.

For the molecule `C[C@]12C=CC(=O)C=C1CC[C@@H]1[C@@H]2[C@@H](O)C[C@@]2(C)[C@H]1CC[C@]2(O)C(=O)CO` [PREDNISOLONE], the AC50 (on B1 bradykinin receptor; in test [2]; at Estrogen receptor beta; at Glucagon receptor) was more than 30 µM throughout.

Consider `C[C@@H]1CN(c2c(F)c(N)c3c(=O)c(C(=O)O)cn(C4CC4)c3c2F)C[C@H](C)N1` [SPARFLOXACIN], for which the AC50 in test [6] and in test [7] was more than 50 µM in each case.

As for `Cc1ccc(O)c([C@H](CCN(C(C)C)C(C)C)c2ccccc2)c1` [TOLTERODINE], the AC50 (at Cannabinoid receptor 1; in test [3]; in test [4]; on D(1A) dopamine receptor) was more than 10 µM in each case.
